The series concerns the target ATP-dependent translocase ABCB1 (Mus musculus, UniProt P21447). Briefly: TP_TRANSPORTER: increase in brain concentration in mdr1a(-/-) mouse. It counts as functional, organism-based. Conditions: in vivo.

Experimental findings from ChEMBL document CHEMBL2073893, “BBB transport and P-glycoprotein functionality using MDR1A (-/-) and wild-type mice. Total brain versus microdialysis concentration profiles of rhodamine-123” (Pharm Res, 1998) are described below.

Sequence of ATP-dependent translocase ABCB1 (P21447 whole entry): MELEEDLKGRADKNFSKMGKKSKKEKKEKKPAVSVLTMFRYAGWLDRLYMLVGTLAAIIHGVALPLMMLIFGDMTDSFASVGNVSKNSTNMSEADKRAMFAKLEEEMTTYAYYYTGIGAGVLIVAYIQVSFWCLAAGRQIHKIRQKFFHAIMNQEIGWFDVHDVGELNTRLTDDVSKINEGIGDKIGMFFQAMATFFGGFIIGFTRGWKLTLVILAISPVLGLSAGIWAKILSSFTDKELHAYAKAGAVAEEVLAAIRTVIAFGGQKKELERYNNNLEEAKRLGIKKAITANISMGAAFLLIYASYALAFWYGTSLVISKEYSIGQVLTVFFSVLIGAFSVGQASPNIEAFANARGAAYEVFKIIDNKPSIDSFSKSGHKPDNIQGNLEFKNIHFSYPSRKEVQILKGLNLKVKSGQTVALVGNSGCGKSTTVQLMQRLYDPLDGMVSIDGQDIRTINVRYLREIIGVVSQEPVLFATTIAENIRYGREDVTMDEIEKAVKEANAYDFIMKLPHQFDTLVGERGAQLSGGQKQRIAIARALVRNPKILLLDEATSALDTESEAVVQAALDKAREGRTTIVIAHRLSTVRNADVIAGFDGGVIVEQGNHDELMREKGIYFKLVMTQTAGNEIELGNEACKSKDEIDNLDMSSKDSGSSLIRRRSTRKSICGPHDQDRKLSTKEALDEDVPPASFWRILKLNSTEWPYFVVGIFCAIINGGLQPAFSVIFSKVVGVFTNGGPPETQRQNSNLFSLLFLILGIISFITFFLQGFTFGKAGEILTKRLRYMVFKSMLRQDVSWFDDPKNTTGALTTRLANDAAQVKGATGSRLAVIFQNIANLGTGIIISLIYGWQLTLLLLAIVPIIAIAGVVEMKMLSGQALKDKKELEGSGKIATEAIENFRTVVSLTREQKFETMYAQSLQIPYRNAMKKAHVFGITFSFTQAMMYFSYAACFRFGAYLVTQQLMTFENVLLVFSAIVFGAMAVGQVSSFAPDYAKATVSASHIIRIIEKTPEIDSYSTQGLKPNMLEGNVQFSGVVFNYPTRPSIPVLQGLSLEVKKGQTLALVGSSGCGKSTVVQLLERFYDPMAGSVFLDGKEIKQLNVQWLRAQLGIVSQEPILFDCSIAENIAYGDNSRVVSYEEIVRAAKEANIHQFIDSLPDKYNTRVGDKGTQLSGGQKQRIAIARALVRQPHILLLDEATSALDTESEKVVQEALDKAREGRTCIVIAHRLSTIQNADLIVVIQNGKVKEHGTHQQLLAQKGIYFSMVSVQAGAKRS

Regarding `COC(=O)c1ccccc1-c1c2ccc(=N)cc-2oc2cc(N)ccc12.Cl` [RHODAMINE123], the Activity result is “substrate [+]”.
